Key:
human plasma renin = molecular target: T1, human plasma renin (Homo sapiens, UniProt P00797); assay: Renin inhibiting activities (human plasma, angiotensin I by radioimmunoassay); format: biochemical; details: pH7.4, 37° C., one hour
T1 construct: from tissue; host or cells: human plasma
T1 sequence (P00797 67-406): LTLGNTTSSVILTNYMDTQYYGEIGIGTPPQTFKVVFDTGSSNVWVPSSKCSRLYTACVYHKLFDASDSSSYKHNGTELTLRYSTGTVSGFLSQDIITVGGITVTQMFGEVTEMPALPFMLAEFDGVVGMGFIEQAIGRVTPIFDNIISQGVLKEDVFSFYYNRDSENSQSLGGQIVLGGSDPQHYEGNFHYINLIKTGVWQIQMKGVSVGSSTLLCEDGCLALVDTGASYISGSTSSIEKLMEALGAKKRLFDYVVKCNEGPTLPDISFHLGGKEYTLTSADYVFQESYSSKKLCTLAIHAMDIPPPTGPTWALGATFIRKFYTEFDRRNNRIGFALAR
Description: TEST EXAMPLE 1: Renin inhibiting activities
To 156 μl of a 0.2M sodium phosphate buffer solution (pH7.4), 40 μl of a solution mixture of 34 mM 8-hydroxyquinoline and 100 mM disodium ethylenediamine tetraacetate, 4 μl of dimethyl sulfoxide or a dimethyl sulfoxide solution of an inhibitor and 200 μl of human plasma were added and reacted at 37° C. for one hour. Then, pepstatin was added thereto to terminate the reaction, and the amount of the resulting angiotension I was measured by radio immunoassay whereby the inhibiting activity was determined.

[1] = Absorption test by oral administration in rats (plasma concentration); format: in vivo; details: rat, rats (n=4), 10 mg/kg oral, read-out: Concentration of the compound in plasma
Description: TEST EXAMPLE 2: Absorption test by oral administration
10 mg/kg of the compound of Example 16 was orally administered to rats (n=4), whereupon the concentration of the compound in the plasma was measured. The concentration in the plasma was calculated by the inhibiting activities against human plasma renin.

CCCC[C@H](NC(=O)C(Cc1cccc2ccccc12)CS(=O)(=O)CC)C(=O)N[C@@H](CC1CCCCC1)[C@@H](O)[C@H](O)CN1CCOCC1 (mixture of isomers) [Example 16, (2RS,3RS,4S)-4-{L-N-[3-ethylsulfonyl-2-(1-naphthylmethyl)propionyl]norleucyl}amino-5-cyclohexyl-1-morpholino-2,3-pentandiol]
IC50 (human plasma renin): 3.4 nM | concentration at 0.5 h ([1]; 1/2 hrs): 267 ng/mL | concentration at 0.25 h ([1]; 1/4 hrs): 212 ng/mL | concentration at 10 min ([1]; 1/6 hrs): 136 ng/mL | concentration at 5 min ([1]; 1/12 hrs): 89 ng/mL | concentration at 1 h ([1]; 1 hr): 183 ng/mL | concentration at 2 h ([1]; 2 hrs): 85 ng/mL | concentration at 4 h ([1]; 4 hrs): 34 ng/mL | concentration at 8 h ([1]; 8 hrs): 12 ng/mL | concentration at 24 h ([1]; 24 hrs): 7 ng/mL

CCCC[C@H](NC(=O)[C@@H](Cc1cccc2ccccc12)CS(=O)(=O)CC)C(=O)N[C@@H](CC(C)C)[C@@H](O)C[C@@H](CC)C(=O)NCCN1CCOCC1 (single isomer, unassigned) [Example 8, (2R or S,4S,5S)-5-{L-N-[(2R or S)-3-ethylsulfonyl-2-(1-naphthylmethyl)propionyl]norleucyl}amino-2-ethyl-4-hydroxy-7-methyloctanoic acid 2-morpholinoethylamide]
IC50 (human plasma renin): 1.5 nM

CCCC[C@H](NC(=O)C(Cc1cccc2ccccc12)CS(=O)(=O)c1ncccn1)C(=O)N[C@@H](CC(C)C)[C@@H](O)CC(CC)C(=O)NCC(C)C (single isomer, unassigned) [Example 2, (2RS,4S,5S)-5-{L-N-[(2R or S)-3-(pyrimidin-2-yl)sulfonyl-2-(1-naphthylmethyl)propionyl]norleucyl}amino-2-ethyl-4-hydroxy-7-methyloctanoic acid isobutylamide]
IC50 (human plasma renin): 0.17 nM

CCCC[C@H](NC(=O)C(Cc1ccccc1)CS(=O)(=O)C1CCCC1)C(=O)N[C@@H](CC1CCCCC1)[C@@H](O)[C@@H](O)CN1CCOCC1 (single isomer, unassigned) [Example 51(B), (2S,3R,4S)-4-{L-N-[(2S or R)-3-cyclopentanesulfonyl-2-benzylpropionyl]norleucyl}amino-5-cyclohexyl-1-morpholino-2,3-pentanediol]
IC50 (human plasma renin): 2 nM

CCC(C[C@H](O)[C@H](CC(C)C)NC(=O)[C@H](Cc1c[nH]cn1)NC(=O)[C@H](Cc1cccc2ccccc12)CS(=O)(=O)CC)C(=O)NCC(C)C (mixture of isomers) [Example 15, (2RS,4S,5S)-5-{L-N^α -[(2S)-3-ethylsulfonyl-2-(1-naphthylmethyl)propionyl]histidyl}amino-2-ethyl-4-hydroxy-7-methyloctanoic acid isobutylamide]
IC50 (human plasma renin): 0.5 nM

CCCC[C@H](NC(=O)C(CCCSCC)Cc1cccc2ccccc12)C(=O)N[C@@H](CC(C)C)[C@@H](O)CC(CC)C(=O)NCC(C)C (single isomer, unassigned) [Example 12, (2RS,4S,5S)-5-{L-N-[(2R or S)-5-ethylthio-2-(1-naphthylmethyl)pentanoyl]norleucyl}amino-2-ethyl-4-hydroxy-7-methyloctanoic acid isobutylamide]
IC50 (human plasma renin): 9.7 nM

From US5122523A, “N-acylamino acid derivatives and their pharmaceutical compositions” (Banyu Pharmaceutical Co., Ltd., priority 1987, dated 1992)
